{"source": "paper PMC3280264", "about": "(PLoS ONE, 2012)", "target": "T1, Human SGLT3 (Homo sapiens, UniProt Q9NY91)", "T1 construct": "expressed in transfected cells; host or cells: oocytes (from Nasco), injected with mRNA", "T1 sequence (Q9NY91 1-659)": "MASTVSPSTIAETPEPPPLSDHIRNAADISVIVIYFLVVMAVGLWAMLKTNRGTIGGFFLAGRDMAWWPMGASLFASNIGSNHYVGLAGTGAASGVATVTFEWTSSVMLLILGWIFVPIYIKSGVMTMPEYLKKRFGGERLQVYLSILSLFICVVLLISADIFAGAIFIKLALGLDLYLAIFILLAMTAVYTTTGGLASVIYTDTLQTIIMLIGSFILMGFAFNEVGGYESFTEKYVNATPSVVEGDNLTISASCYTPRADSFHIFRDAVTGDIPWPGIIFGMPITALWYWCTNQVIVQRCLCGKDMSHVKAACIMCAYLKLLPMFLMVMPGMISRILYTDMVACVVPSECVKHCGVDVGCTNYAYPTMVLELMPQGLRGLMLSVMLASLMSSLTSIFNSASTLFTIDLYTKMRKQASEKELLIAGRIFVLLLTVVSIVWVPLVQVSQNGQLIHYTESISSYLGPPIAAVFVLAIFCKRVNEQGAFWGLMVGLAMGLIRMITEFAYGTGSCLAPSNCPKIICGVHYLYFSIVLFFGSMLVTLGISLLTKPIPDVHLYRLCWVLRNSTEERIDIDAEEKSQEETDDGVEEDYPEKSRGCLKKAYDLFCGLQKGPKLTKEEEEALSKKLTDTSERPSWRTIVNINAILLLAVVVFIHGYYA", "test": "Two-electrode voltage clamp recording of oocytes expressing human SGLT3 (DNJ-induced currents)", "assay_type": "cell-based", "procedure": "Oocytes were obtained from Nasco (Fort Atkinson, Wisconsin, USA). Stage V–VI oocytes were injected with 50 nl of either human SGLT3 mRNA (at 1 ng/nl) or distilled water (control) and incubated at 18°C in a calcium-free solution (92 mM NaCl, 2 mM KCl, 1 mM MgCl2, 5 mM HEPES, 0.05 mg/ml gentamicin at pH 7.5) for 4–6 days before recording. The extracellular recording solution contained 92 mM NaCl, 2 mM KCl, 1.8 mM CaCl2, 1 mM MgCl2, and 5 mM HEPES at pH 7.5. Injected oocytes were impaled with 2 microelectrodes filled with 3 M KCl (resistance of ∼0.5–3 MΩ) and voltage clamped to −120 mV, at which continuous recordings were made (filtered at 5 kHz and sampled at 625 Hz). To establish the baseline in the absence of agonist, oocytes were first perfused for 85 seconds with a control buffer (92 mM NaCl, 2 mM KCl, 1.8 mM CaCl2, 1 mM MgCl2, 5 mM HEPES at pH 7.5). […] Finally, phlorizin (3 mM) was applied in the presence of 50 µM DNJ for 160 seconds. All experiments were performed at 22°C. Currents in the presence of 50 µM DNJ were subtracted from leak currents (currents in control buffer alone) to obtain DNJ-induced currents (IDNJ). Effects of compounds were calculated as: % Inhibition = 100×(IDNJ−Icmpd)/IDNJ, where Icmpd is the DNJ-induced and leak-subtracted current in the presence of a compound or DMSO. Due to lack of effect at the highest dose tested, a dose-response relationship was not examined."}
{"smiles": "Cc1ccc([C@@H]2O[C@H](CO)[C@@H](O)[C@H](O)[C@H]2O)cc1Cc1ccc(-c2ccc(F)cc2)s1", "note": "[canagliflozin, Canagliflozin]", "values": [{"measurement": "inhibition at 10 µM", "setting": "10 µM, SGLT3-injected oocytes, 50 µM DNJ, n = 9, DMSO 15.6±3.1%, difference not statistically significant", "value": "23.4 ± 4.3", "unit": "%"}, {"measurement": "effect on currents in sham-injected oocytes", "setting": "10 µM, sham (water)-injected oocytes, in the presence of 50 µM DNJ", "value": "did not affect currents"}, {"measurement": "effect on DNJ-induced currents", "setting": "oocytes expressing human SGLT3, column head IC50, nM", "value": "No inhibitory effect"}]}
